# Reference: patent publication US20200017496A1 (priority 2017, published 2020)
# Key:
# [1] = tested on: Klebsiella pneumoniae (KPN) isolates; assay: MIC of compounds alone and combined with antibacterials, broth microdilution (CLSI); format: cell-based; conditions: for MIC ATB in combination: AF1 @ 4 μg/mL; for MIC: alone
# In short: (§1)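 Inoculum 5·10^5 CFU/mL (final), log phase, ca-MHB; 16-20 h, 35° C, ambient air. MIC = lowest conc. with no visible growth; ATB MIC read at each compound level.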
# [2] = tested on: Citrobacter freundii (CFR) isolates; assay: as above; format: cell-based
# In short: as §1
structure (smiles),measurement,setting,value
"C=CC1=C(C(=O)O)N2C(=O)[C@@H](NC(=O)/C(=N\O)c3csc(N)n3)[C@H]2SC1 [CDR, Cefdinir]",MIC ATB in combination,[1]; KPN 6299,<=0.25 μg/mL
same,MIC ATB in combination,[1]; KPN 110376,0.5 µg/mL
same,MIC ATB in combination,[1]; KPN 131119,1 µg/mL
same,MIC ATB in combination,[1]; KPN 140513,16 µg/mL
same,MIC ATB in combination,[1]; KPN 160143,<=0.25 μg/mL
same,MIC ATB in combination,[1]; KPN 190128,1 µg/mL
same,MIC ATB in combination,[1]; KPN 190270,1 µg/mL
same,MIC ATB in combination,[1]; KPN 190425,<=0.25 μg/mL
same,MIC ATB in combination,[1]; KPN 190551,<=0.25 μg/mL
same,MIC ATB in combination,[1]; KPN 200047,<=0.25 μg/mL
same,MIC ATB in combination,[1]; KPN 200327,<=0.25 μg/mL
same,MIC ATB in combination,[1]; KPN 260251,0.5 µg/mL
same,MIC ATB in combination,[1]; KPN 260252,16 µg/mL
same,MIC ATB in combination,[1]; KPN 260376,<=0.25 μg/mL
same,MIC ATB in combination,[1]; KPN 270077,1 µg/mL
same,MIC ATB in combination,[1]; KPN 700603,0.5 µg/mL
same,MIC ATB in combination,[1]; KPN ARA,0.5 µg/mL
same,MIC ATB in combination,[1]; KPN BAA-1898,0.5 µg/mL
same,MIC ATB in combination,[1]; KPN LIB,1 µg/mL
same,MIC ATB in combination,[1]; KPN UFR22_O,1 µg/mL
same,MIC ATB in combination,[1]; KPN UFR23,0.5 µg/mL
same,MIC ATB in combination,[1]; KPN UFR24,4 µg/mL
same,MIC ATB in combination,[1]; KPN UFR25,<=0.25 μg/mL
same,MIC ATB in combination,[1]; KPN UFR27,8 µg/mL
same,MIC ATB in combination,[1]; KPN UFR28,1 µg/mL
same,MIC ATB in combination,[1]; KPN UFR65,2 µg/mL
same,MIC ATB in combination,[1]; KPN UFR66,2 µg/mL
same,MIC ATB in combination,[1]; KPN UFR67,16 µg/mL
same,MIC ATB in combination,[1]; KPN UFR68,2 µg/mL
same,MIC ATB in combination,[1]; KPN UFR76,>128 µg/mL
same,MIC ATB in combination,[1]; KPN UFR77,8 µg/mL
same,MIC ATB in combination,[1]; KPN UFR78,128 µg/mL
same,MIC ATB in combination,[1]; KPN UFR79,16 µg/mL
same,MIC ATB in combination,[1]; KPN UFR80,1 µg/mL
same,MIC ATB in combination,[1]; KPN UFR81,16 µg/mL
same,MIC ATB in combination,[1]; KPN UFR215,0.5 µg/mL
same,MIC ATB in combination,[1]; KPN UFR216,<=0.25 μg/mL
same,MIC ATB in combination,[1]; KPN UFR217,<=0.25 μg/mL
same,MIC ATB in combination,[1]; KPN UFR219,<=0.25 μg/mL
same,MIC ATB in combination,[1]; KPN UFR220,2 µg/mL
same,MIC ATB in combination,[1]; KPN UFR221,2 µg/mL
same,MIC ATB in combination,[1]; KPN UFR222,16 µg/mL
same,MIC ATB in combination,[1]; KPN UFR227O,32 µg/mL
same,MIC ATB in combination,"[2]; CFR UFR10, AF1 @ 4 μg/mL",<=0.25 μg/mL
same,MIC ATB in combination,"[2]; CFR UFR11, AF1 @ 4 μg/mL",128 µg/mL
same,MIC ATB in combination,"[2]; CFR UFR83, AF1 @ 4 μg/mL",>128 µg/mL
same,MIC ATB in combination,"[2]; CFR UFR146, AF1 @ 4 μg/mL",0.5 µg/mL
same,MIC ATB in combination,"[2]; CFR UFR248, AF1 @ 4 μg/mL",0.5 µg/mL
same,MIC ATB in combination,"[2]; CFR UFR249, AF1 @ 4 μg/mL",<=0.25 μg/mL
same,MIC ATB in combination,"[2]; CFR UFR250, AF1 @ 4 μg/mL",<=0.25 μg/mL
same,MIC ATB in combination,"[2]; strain CFR UFR253, antibacterial combined with AF1 @ 4 μg/mL",<=0.25 μg/mL
same,MIC ATB in combination,"[2]; strain CFR UFR254, antibacterial combined with AF1 @ 4 μg/mL",<=0.25 μg/mL
NC(=O)[C@@H]1CC[C@@H]2CN1C(=O)N2OC(F)(F)C(=O)[O-].[Na+] [EA1],MIC,[1]; KPN 6299,>32 µg/mL
same,MIC,[1]; KPN 110376,>32 µg/mL
same,MIC,[1]; KPN 131119,>32 µg/mL
same,MIC,[1]; KPN 140513,>32 µg/mL
same,MIC,[1]; KPN 160143,>32 µg/mL
same,MIC,[1]; KPN 190128,>32 µg/mL
same,MIC,[1]; KPN 190270,>32 µg/mL
same,MIC,[1]; KPN 190425,>32 µg/mL
same,MIC,[1]; KPN 190551,>32 µg/mL
same,MIC,[1]; KPN 200047,>32 µg/mL
same,MIC,[1]; KPN 200327,>32 µg/mL
same,MIC,[1]; KPN 260251,>32 µg/mL
same,MIC,[1]; KPN 260252,>32 µg/mL
same,MIC,[1]; KPN 260376,>32 µg/mL
same,MIC,[1]; KPN 270077,>32 µg/mL
same,MIC,[1]; KPN 700603,>32 µg/mL
same,MIC,[1]; KPN ARA,>32 µg/mL
same,MIC,[1]; KPN BAA-1898,>32 µg/mL
same,MIC,[1]; KPN LIB,>32 µg/mL
same,MIC,[1]; KPN UFR22_O,>32 µg/mL
same,MIC,[1]; KPN UFR23,>32 µg/mL
same,MIC,[1]; KPN UFR24,>32 µg/mL
same,MIC,[1]; KPN UFR25,>32 µg/mL
same,MIC,[1]; KPN UFR27,>32 µg/mL
same,MIC,[1]; KPN UFR28,>32 µg/mL
same,MIC,[1]; KPN UFR65,>32 µg/mL
same,MIC,[1]; KPN UFR66,>32 µg/mL
same,MIC,[1]; KPN UFR67,>32 µg/mL
same,MIC,[1]; KPN UFR68,>32 µg/mL
same,MIC,[1]; KPN UFR76,>32 µg/mL
same,MIC,[1]; KPN UFR77,>32 µg/mL
same,MIC,[1]; KPN UFR78,>32 µg/mL
same,MIC,[1]; KPN UFR79,>32 µg/mL
same,MIC,[1]; KPN UFR80,>32 µg/mL
same,MIC,[1]; KPN UFR81,>32 µg/mL
same,MIC,[1]; KPN UFR215,>32 µg/mL
same,MIC,[1]; KPN UFR216,>32 µg/mL
same,MIC,[1]; KPN UFR217,>32 µg/mL
same,MIC,[1]; KPN UFR219,>32 µg/mL
same,MIC,[1]; KPN UFR220,>32 µg/mL
same,MIC,[1]; KPN UFR221,>32 µg/mL
same,MIC,[1]; KPN UFR222,>32 µg/mL
same,MIC,[1]; KPN UFR227O,>32 µg/mL
same,MIC,"[2]; CFR UFR10, alone",>32 µg/mL
same,MIC,"[2]; CFR UFR11, alone",16 µg/mL
same,MIC,"[2]; CFR UFR83, alone",>32 µg/mL
same,MIC,"[2]; CFR UFR146, alone",64 µg/mL
same,MIC,"[2]; CFR UFR248, alone",>32 µg/mL
same,MIC,"[2]; CFR UFR249, alone",>32 µg/mL
same,MIC,"[2]; CFR UFR250, alone",>32 µg/mL
same,MIC,"[2]; strain CFR UFR253, compound alone",32 µg/mL
same,MIC,"[2]; strain CFR UFR254, compound alone",32 µg/mL
